According to patent US20200239530A1, “COMPOUNDS AND METHODS OF MODULATING PROTEIN DEGRADATION” (Vividion Therapeutics, Inc., priority 2017, published 2020):

Experiments:
[1] = biological target: T1, MAPK10 Mitogen-activated protein kinase 10 (Homo sapiens, UniProt P53779); assay: Cysteine liganding, probe competition; type: binding; settings: for 100 Max / 100 ave / 500 ave / 500 Max: uniprot P53779; for 500 Max: in % (unit assumed)
T1 construct: Cells were resuspended in cold PBS on ice and sonicated with a probe sonicator to achieve lysis; endogenous in cells
T1 sequence (P53779 whole entry): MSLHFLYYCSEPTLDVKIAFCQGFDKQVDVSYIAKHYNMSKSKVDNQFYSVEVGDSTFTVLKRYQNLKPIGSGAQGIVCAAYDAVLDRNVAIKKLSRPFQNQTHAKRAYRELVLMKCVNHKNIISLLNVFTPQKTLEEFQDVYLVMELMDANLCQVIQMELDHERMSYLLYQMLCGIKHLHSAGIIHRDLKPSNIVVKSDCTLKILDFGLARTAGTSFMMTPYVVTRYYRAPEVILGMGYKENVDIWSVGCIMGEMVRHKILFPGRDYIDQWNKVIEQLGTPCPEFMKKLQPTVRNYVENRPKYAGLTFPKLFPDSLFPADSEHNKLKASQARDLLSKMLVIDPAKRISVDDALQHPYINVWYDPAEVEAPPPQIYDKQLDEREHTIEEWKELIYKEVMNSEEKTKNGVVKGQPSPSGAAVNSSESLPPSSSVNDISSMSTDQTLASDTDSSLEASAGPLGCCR
Outline: (§1)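 Read-out is loss of desthiobiotin iodoacetamide labelling at cysteines, measured on streptavidin-enriched tryptic peptides. Compound preincubation ran 1 hr at 25° C in PBS lysate holding 5 mg/ml proteome before the probe was added.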

[2] = biological target: T2, NAA15 N-alpha-acetyltransferase 15, NatA auxiliary subun (Homo sapiens, UniProt Q9BXJ9); assay: Cysteine liganding, probe competition; type: binding
T2 construct: Cells were resuspended in cold PBS on ice and sonicated with a probe sonicator to achieve lysis; endogenous in cells
T2 sequence (Q9BXJ9 1-866): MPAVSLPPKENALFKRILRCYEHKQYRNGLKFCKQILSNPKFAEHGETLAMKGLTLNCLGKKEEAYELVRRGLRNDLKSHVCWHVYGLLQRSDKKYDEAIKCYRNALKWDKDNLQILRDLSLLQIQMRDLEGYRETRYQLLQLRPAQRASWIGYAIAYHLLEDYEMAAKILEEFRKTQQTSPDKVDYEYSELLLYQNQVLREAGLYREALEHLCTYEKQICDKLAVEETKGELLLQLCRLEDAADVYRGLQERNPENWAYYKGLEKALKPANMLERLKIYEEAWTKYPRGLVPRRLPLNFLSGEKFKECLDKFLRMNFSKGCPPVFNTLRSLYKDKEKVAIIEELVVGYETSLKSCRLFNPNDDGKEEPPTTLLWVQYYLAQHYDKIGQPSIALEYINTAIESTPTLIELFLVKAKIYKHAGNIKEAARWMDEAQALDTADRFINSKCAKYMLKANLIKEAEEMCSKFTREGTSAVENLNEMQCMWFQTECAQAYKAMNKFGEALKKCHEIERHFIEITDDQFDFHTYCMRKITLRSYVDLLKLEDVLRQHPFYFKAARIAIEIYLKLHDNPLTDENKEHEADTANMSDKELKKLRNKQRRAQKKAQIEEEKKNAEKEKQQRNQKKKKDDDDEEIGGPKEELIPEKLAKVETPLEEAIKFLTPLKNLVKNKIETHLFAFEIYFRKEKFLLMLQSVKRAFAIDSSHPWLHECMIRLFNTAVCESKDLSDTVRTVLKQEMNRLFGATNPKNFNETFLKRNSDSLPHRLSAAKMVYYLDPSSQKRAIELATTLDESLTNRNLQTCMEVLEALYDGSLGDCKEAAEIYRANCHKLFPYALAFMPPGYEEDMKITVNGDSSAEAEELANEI
Outline: as §1

| SMILES | Liganded ([1]; MAPK10 Res# 283, uniprot P53779) | 100 Max [1] | 100 ave [1] | 500 ave [1] | 500 Max [1] | Liganded ([2]; NAA15 Res# 817, uniprot Q9BXJ9) | 100 Max ([2]; uniprot Q9BXJ9) | 100 ave ([2]; uniprot Q9BXJ9) | 500 Max ([2]; uniprot Q9BXJ9) | 500 ave ([2]; uniprot Q9BXJ9) |
| --- | --- | --- | --- | --- | --- | --- | --- | --- | --- | --- |
| COc1ccc2c(c1)CCCN2C(=O)CCl [KB02] | YES | 44.42 | 26.11 | 76.89 | 78.63 | YES |  |  |  |  |
| O=C(CCl)Nc1cc(C(F)(F)F)cc(C(F)(F)F)c1 [KBO3] |  | 17.22 | 12.33 | 40.875 | 44.06 |  | −21.23 | −31.6767 | 14.66 | 14.66 |
